Residues, ends and D or L forms follow the SMILES beside them.
Test: Potentiometry: protonation of the ligand
Type: physicochemical
Conditions: T = 298 K, I = 0.1 M (KCl)
Description: Stability constants for proton and metal complexes were obtained from pH-metric titration curves registered at T = 298 K and ionic strength 0.1 M (KCl). The potentiometric apparatus was previously described. Solutions were titrated with 0.1 M carbonate-free KOH. The electrode was daily calibrated for hydrogen ion concentration by titrating HNO3 with the standard base solution, under the same experimental conditions as above. The asymmetry potential and the slope of the electrode couple were computed by means of […][41] and Glee[42] programs. The purities and exact concentrations of the ligand solutions were determined by the Gran method. The […][44] program was employed for the overall formation constant (β) calculations, referred to the following equilibrium equation: pM + qL + rH ⇆ MpLqHr (charges omitted; p is 0 in the case of ligand protonation; r can be negative). The computed standard deviations (referring to random errors only) were given by the program itself and are shown in parentheses as uncertainties on the last significant figure. Hydrolysis constants for metal ions were taken from the literature[45],[46]. The distribution and competition diagrams were computed using the HYSS program.
1. Wild-type calcitermin: thermodynamic data
Wild-type calcitermin (WT) has been previously investigated by our research group in aqueous solutions and ionic medium NaClO4.1 For the sake of comparison, potentiometric studies of WT and its copper and zinc complexes have been performed in a different ionic medium (KCl 0.1 M). The study of the speciation under different experimental conditions, changing ionic medium and metal-ligand ratio, is essential to comprehensively describe the thermodynamics of calcitermin, which is usually found in multicomponent media like biological fluids.
Table S1. Equilibrium constants for protonation of WT and its Cu2+ and Zn2+ complex formation at T = 298 K and I = 0.1 M (KCl). Values in parentheses are standard deviations on the last significant figure.

CC[C@H](C)[C@H](NC(=O)[C@H](C)NC(=O)[C@@H](N)C(C)C)C(=O)N[C@@H](C)C(=O)N[C@@H](CC(C)C)C(=O)N[C@@H](CCCCN)C(=O)N[C@@H](C)C(=O)N[C@@H](C)C(=O)N[C@@H](Cc1c[nH]cn1)C(=O)N[C@@H](Cc1ccc(O)cc1)C(=O)N[C@@H](Cc1c[nH]cn1)C(=O)N[C@H](C(=O)N[C@@H](Cc1c[nH]cn1)C(=O)N[C@@H](CCCCN)C(=O)N[C@@H](CCC(=O)O)C(=O)O)[C@@H](C)O [WT, VAIALKAAHYHTHKE, reference compound] (H-VAIALKAAHYHTHKE-OH)
protonation logK H2L: 10.53 | protonation logK H3L: 9.50 | protonation logK H4L: 7.73 | protonation logK H5L: 6.93 | protonation logK H6L: 6.33 | protonation logK H7L: 5.65 | protonation logK H8L: 4.22 | protonation logK H9L: 2.93 | protonation logK HL: 10.61 | protonation logβ H2L: 21.14(2) | protonation logβ H3L: 30.64(4) | protonation logβ H4L: 38.38(4) | protonation logβ H5L: 45.31(4) | protonation logβ H6L: 51.64(4) | protonation logβ H7L: 57.29(4) | protonation logβ H8L: 61.51(4) | protonation logβ H9L: 64.44(5) | protonation logβ HL: 10.61(6)
